Reference: ChEMBL document CHEMBL3988442, “University of Dundee, Small-Polar-MMV Screening Library” (2021)

Target: ClpP1P2 (Mycobacterium tuberculosis (strain ATCC 25618 / H37Rv), UniProt P9WPC3+P9WPC5)
Experiment: in vitro assay to detect presence of AMC directly proportional to the activity of ClpP1P2. GHDDI collaboration.
Type: functional

| Structure (SMILES) | IC50 [µM] |
| --- | --- |
| Cc1cnn(CC2CCCN2C(=O)c2nccnc2N)c1 (stereo not drawn) | > 100 |
| CCN(Cc1nc2c(cnn2C)c(=O)[nH]1)Cc1cccs1 | > 100 |
| O=C(CN1CCC2(CC1)NC(=O)c1cc(Br)ccc1N2)NC1CC1 | > 100 |
| O=C(NCc1ccccn1)[C@H]1COC[C@H]2CN(C3CCCC3)C[C@H]21 | > 100 |
| Cc1ccc2nccc(C(=O)N3CCOC(CCN(C)C)C3)c2c1 (stereo not drawn) | > 100 |
| CCN1CCCC1CNCc1cc2cc3c(cc2[nH]c1=O)OCCO3 (stereo not drawn) | > 100 |
| Cc1nc(CN(C)C2CCN(Cc3nc4ccccc4n3C)C2)no1 (stereo not drawn) | > 100 |
| COc1ccccc1CNc1ncnc2c1NC(=O)CN2 | > 100 |
| CCN(CC1CCOC1)C(=O)Nc1ccc(OC)nc1 (stereo not drawn) | > 100 |
| COCCNC(=O)c1cc(-c2cc[nH]n2)n2ccccc12 | > 100 |
| Cc1cc(-c2cc(-c3cc(CC(=O)O)cs3)nc(N)c2C#N)oc1C | > 100 |
| COc1ccc2cc(CN(C)CCN3CCCCC3=O)c(=O)[nH]c2c1 | > 100 |
| CC(C)c1nc2oc(C(=O)N3CCOCC3)c(N)c2c2c1CCCC2 | > 100 |
| COc1cccc2ccc(N3CCC(O)(c4ccc(C)cn4)CC3)nc12 | > 100 |
| O[C@@H]1C[C@H]2CN(Cc3ccccc3Cl)[C@H](Cc3ccccc3)CN2C1 | > 100 |
| CCOc1ccc2[nH]c(=O)c(CN3CCN(S(N)(=O)=O)CC3)cc2c1 | > 100 |
| Cc1nc(CN2CCOC(Cn3cccn3)C2)nc2ccccc12 (stereo not drawn) | > 100 |
| c1coc(-c2noc(CN3CCc4cncnc4C3)n2)c1 | > 100 |
| Cn1cc(-c2nc(CNCCn3cccn3)cs2)cn1 | > 100 |
| Cc1noc(CN(CCc2cccs2)Cc2cccc(C#N)c2)n1 | > 100 |
| CN(C)S(=O)(=O)N1CCC(c2n[nH]cc2-c2ccnc(N)c2)C1 (stereo not drawn) | > 100 |
| Cc1cnn(CC2CN(Cc3nc4cccnc4[nH]3)CCO2)c1 (stereo not drawn) | > 100 |

| Structure (SMILES) | IC50 [µM] |
| --- | --- |
| N#Cc1ccccc1N1CCCN(C(=O)CCc2ccsc2)CC1 | > 100 |
| CC(Cc1ccco1)NC(=O)Nc1ccc(N2CCCC2)nc1 (stereo not drawn) | > 100 |
| O=C1NC2(CCN(CC(=O)N3CCOCC3)CC2)Nc2ccccc21 | > 100 |
| Cn1cc(CN2CCCN(C(=O)c3cn4ccccc4n3)CC2)cn1 | > 100 |
| Cc1nn(C)c(C)c1-c1cc(-c2cc(CC(=O)O)cs2)nc(N)c1C#N | > 100 |
| CCOc1ccc2[nH]c(=O)c(CN3CCCC(CO)(CO)C3)cc2c1 | > 100 |
| N#Cc1c(C2CCOC2)cc(-c2ccc(N3CCCCC3)cc2)nc1N (stereo not drawn) | > 100 |
| Fc1cccc(CNc2cncc(-n3cccn3)n2)c1 | > 100 |
| Cn1cnc(-c2nc(C(=O)NCC3CCCO3)c3ccccn23)c1 (stereo not drawn) | > 100 |
| N#Cc1ccnc(N2CCC(c3nccn3Cc3cscn3)CC2)c1 | > 100 |
| CN1CCN(c2ncnc3c2c(C(=O)NC2CC2)c2ccccn23)CC1 | > 100 |
| Cc1cc(C)n(-c2cncc(NCCNC(=O)CC3CCCC3)n2)n1 | > 100 |
| CC1CN(C(=O)CN(Cc2ccco2)Cc2cccs2)CCO1 (stereo not drawn) | > 100 |
| CCN(CC)c1nc(C)cc(C(=O)Nc2cccc(C(N)=O)c2)n1 | > 100 |
| Cc1nn(C)c(C)c1C(=O)NCc1cc(N(C)C)nc2ccccc12 | > 100 |
| CNC(=O)c1cc2c(nc1NCC(C)C)CCN(S(=O)(=O)N(C)C)CC2 | > 100 |
| CC(c1cccnc1)N(C)Cc1cc2cc3c(cc2[nH]c1=O)OCO3 (stereo not drawn) | > 100 |
| O=C(NCc1cccnc1)c1ccc2nccn2c1 | > 100 |
| COc1ccc(-c2cc3cccn(CC(=O)N4CCOCC4)c-3n2)cc1 | > 100 |
| Cc1n[nH]c(=O)c2c(NC(=O)CN3CCOC(C)C3)oc(C)c12 (stereo not drawn) | > 100 |
| CN(C)c1nc2sc(C(=O)N3CCNC(=O)CC3)cc2s1 | > 100 |
| CC(C)SCCNC(=O)c1cccc2ccnn12 | > 100 |

| Structure (SMILES) | IC50 [µM] |
| --- | --- |
| Cn1cnc(-c2nc(C(=O)NCCN3CCCC3)c3ccccn23)c1 | > 100 |
| COc1cccc(-c2cc(NCCO)nc3[nH]ccc23)n1 | > 100 |
| CCc1nc(CN2CCCC(NCc3nc(C)c(C)o3)C2)no1 (stereo not drawn) | > 100 |
| Cc1cc(C)n(CCCNc2ncnc3c2NC(=O)CN3)n1 | > 100 |
| Cc1cnn(CC(C)Nc2cnc3ccccc3n2)c1 (stereo not drawn) | > 100 |
| CC(C)n1c2ccccc2c2c1cc(C(=O)NCCO)n2C(=O)N(C)C | > 100 |
| O=C1CN(Cc2ccc3ccccc3n2)CCN1C1CCCC1 | > 100 |
| CCN(CC)c1ccc(NS(=O)(=O)c2cnn(CC)c2)cn1 | > 100 |
| Fc1ccccc1-c1cc(N2[C@@H]3CC[C@H]2CNC3)n2nccc2n1 | > 100 |
| Cc1ccccc1OCCN1CCn2c(C)nnc2C1 | > 100 |
| Cc1cnn(CC2CCCCN2C(=O)c2nccnc2N)c1 (stereo not drawn) | > 100 |
| CCN(CC)C(=O)c1ccc(CNc2cncc(-n3cccn3)n2)cc1 | > 100 |
| c1ccc(CCCN2CCOC(Cn3cccn3)C2)cc1 (stereo not drawn) | > 100 |
| CN(CC(=O)N1CCC(COc2ccccc2)CC1)c1cnccn1 | > 100 |
| CN1CCc2c(sc3c2C(=O)NC(/C=C/c2ccccc2)N3)C1 (stereo not drawn) | > 100 |
| Cc1n[nH]c(C)c1-c1cc(-c2cccc(O)c2)nc(N)c1C#N | > 100 |
| CN1CCC(c2nccnc2Nc2cnccn2)CC1 | > 100 |
| Cc1nc(N2C[C@H]3CC[C@@H](C2)N3)nc2cc(S(C)(=O)=O)ccc12 | > 100 |
| c1cc(-c2nc(CN3CCc4c(ncn4C4CC4)C3)cs2)cs1 | > 100 |
| COCC(C)N1CCc2onc(-c3ccc(C(F)(F)F)cc3)c2C1 (stereo not drawn) | > 100 |
| COc1ccc2c(c1)Cc1c-2nc(N)c(C#N)c1C1CCOC1 (stereo not drawn) | > 100 |
| CCc1nc(C2CCCN(C(=O)CC3CCOCC3)C2)no1 (stereo not drawn) | > 100 |

| Structure (SMILES) | IC50 [µM] |
| --- | --- |
| Cc1ccc(-c2nc(C3CCN(C(=O)c4cnn(C)c4)CC3)no2)cn1 | > 100 |
| CC(C)CNC(=O)c1cn(-c2ccccn2)c(=O)c2ccccc12 | > 100 |
| O=C(c1ccc2ccccc2n1)N1CCC2(CCN2c2ncccn2)C1 (stereo not drawn) | > 100 |
| Cc1nc(-c2nc(C(=O)NC3CC3)c3ccccn23)cn1C(C)C | > 100 |
| CCN(CC(C)C#N)C(=O)CNc1cc(Cl)ccc1C(N)=O (stereo not drawn) | > 100 |
| O=C(c1c2c(NCC3CC3)ncnc2n2ccccc12)N1CCOCC1 | > 100 |
| COc1ccc(CNC(=O)Nc2cccnc2N2CCCC2)cc1OC | > 100 |
| Oc1ccc(C2Nc3ccccc3C3=NCCCN32)cc1 (stereo not drawn) | > 100 |
| Cc1cc(C)n(CC2CN(c3cnc4ccccc4n3)CCO2)n1 (stereo not drawn) | > 100 |
| c1ccc(-n2cc(CN3CCCC3Cn3cccn3)nn2)cc1 (stereo not drawn) | > 100 |
| COc1ccc(-c2nnc(CNCCn3cc(C)cn3)o2)cc1 | > 100 |
| O=C(Nc1cc(CCC2CCN(CCO)CC2)ccn1)c1ccccn1 | > 100 |
| Cc1cccc2c1NC1(CCCC1)NC2=O | > 100 |
| c1cnc(Nc2cncc(C3CCCN3)n2)cn1 (stereo not drawn) | > 100 |
| Cc1ccc(-c2cc(-c3c(C)nn(CCO)c3C)c(C#N)c(N)n2)cc1 | > 100 |
| CC(C)n1c2ccccc2c2c1cc(C(=O)N(C)C)n2C(=O)N(C)C | > 100 |
| CCNc1ccnc(-c2ccnc3c2ccn3C)n1 | > 100 |
| CC(C)c1nn(C)c(N(C)C)c1CNCC(O)c1cccc(F)c1 (stereo not drawn) | > 100 |
| CCCC(C)NC(=O)c1ccc(-c2ccco2)[nH]c1=O (stereo not drawn) | > 100 |
| CC(C)C1Nc2ccccc2C(=O)N1CC(=O)Nc1nc2c(s1)CCC2 (stereo not drawn) | > 100 |
| Cc1ccc(CN2C[C@@H]3[C@@H](C(=O)N4CCCC4)CCS(=O)(=O)[C@@H]3C2)cc1 | > 100 |
| Cc1nc(C2CCCN2CC(=O)Nc2c(C)n[nH]c2C)no1 (stereo not drawn) | > 100 |
